What was measured:
Experiment in all cases: relative viability (nuclei count vs DMSO), 5 days (fraction); higher = more cells survive
Entinostat + AZD7762 = compound: Nc1ccccc1NC(=O)c1ccc(CNC(=O)OCc2cccnc2)cc1 [Entinostat] + NC(=O)Nc1cc(-c2cccc(F)c2)sc1C(=O)N[C@H]1CCCNC1 [AZD7762] (partner 0.2 µM)
In short: (§1)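 Relative viability divides the nuclei count in treated wells by that in vehicle wells. Lung cancer cell lines were seeded in 1536-well plates, dosed by pin tool the next day, and fixed and stained after 5 days in one step with final 0.05% Triton X-100, 1% formaldehyde and 1 ug/ml Hoechst. Dosing was a single drug or a fixed anchor-drug dose plus five library-drug doses (not always all listed) in √10 steps, and values are medians of duplicate plates imaged at 4×.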

[1] = compound: C1COCCN1C2=NC(=NC3=C2OC4=C3C=CC=N4)C5=CC(=CC=C5)NC(=O)C6=CN=C(C=C6)N + Cc1nc(Nc2ncc(C(=O)Nc3c(C)cccc3Cl)s2)cc(N2CCN(CCO)CC2)n1 [Dasatinib] (partner 0.075 µM)
In short: as §1

SGI-1776 + Palbociclib = compound: CN1CCC(CNc2ccc3ncc(-c4cccc(OC(F)(F)F)c4)n3n2)CC1 [SGI-1776] + CC(=O)c1c(C)c2cnc(Nc3ccc(N4CCNCC4)cn3)nc2n(C2CCCC2)c1=O [Palbociclib] (partner 0.5 µM)
In short: as §1

SGI-1776 + Navitoclax = compound: CN1CCC(CNc2ccc3ncc(-c4cccc(OC(F)(F)F)c4)n3n2)CC1 [SGI-1776] + CC1(C)CCC(c2ccc(Cl)cc2)=C(CN2CCN(c3ccc(C(=O)NS(=O)(=O)c4ccc(N[C@H](CCN5CCOCC5)CSc5ccccc5)c(S(=O)(=O)C(F)(F)F)c4)cc3)CC2)C1 [Navitoclax] (partner 0.5 µM)
In short: as §1

Cell Line	relative viability (Entinostat + AZD7762; first compound 0.02 µM)	relative viability (Entinostat + AZD7762; first compound 0.06325 µM)	relative viability (Entinostat + AZD7762; first compound 0.2 µM)	relative viability (Entinostat + AZD7762; first compound 0.6325 µM)	relative viability (Entinostat + AZD7762; first compound 2 µM)	relative viability ([1]; first compound 0.02 µM)	relative viability ([1]; first compound 0.06325 µM)	relative viability ([1]; first compound 0.2 µM)	relative viability ([1]; first compound 0.6325 µM)	relative viability ([1]; first compound 2 µM)	relative viability (SGI-1776 + Palbociclib; first compound 0.08 µM)	relative viability (SGI-1776 + Palbociclib; first compound 0.8 µM)	relative viability (SGI-1776 + Palbociclib; first compound 2.53 µM)	relative viability (SGI-1776 + Palbociclib; first compound 8 µM)	relative viability (SGI-1776 + Navitoclax; first compound 0.08 µM)	relative viability (SGI-1776 + Navitoclax; first compound 0.8 µM)	relative viability (SGI-1776 + Navitoclax; first compound 2.53 µM)	relative viability (SGI-1776 + Navitoclax; first compound 8 µM)
201T	0.694	0.711	0.601	0.402	0.328	0.55	0.558	0.606	0.57	0.579	0.36	0.346	0.342	0.327	1.19	1.24	1.23	1.17
A-427	0.703	0.775	0.731	0.584	0.428	0.805	0.77	0.61	0.648	0.589	0.567	0.541	0.547	0.456	1.03	0.957	0.953	1.03
BEN	0.771	0.714	0.685	0.602	0.464	0.309	0.297	0.334	0.371	0.325	0.447	0.476	0.457	0.47	0.0663	0.049	0.0583	0.0494
CAL-12T	0.775	0.578	0.67	0.642	0.464	0.467	0.519	0.396	0.324	0.338	0.425	0.518	0.641	0.418	1.3	1.1	1.29	1.09
ChaGo-K-1	0.872	0.861	0.962	0.897	0.692	0.555	0.625	0.605	0.508	0.522	0.911	0.974	0.967	0.911	0.849	1.23	0.624	0.716
EKVX	0.763	0.645	0.645	0.416	0.265	0.593	0.584	0.513	0.463	0.571	0.436	0.431	0.37	0.318	1.03	0.907	0.999	0.888
EMC-BAC-2	1.17	0.987	0.881	0.441	0.457	0.334	0.378	0.317	0.356	0.294	0.537	0.52	0.518	0.514	1.23	1.22	1.16	1.1
EPLC-272H	0.339	0.224	0.141	0.137	0.14	0.295	0.359	0.267	0.309	0.219	0.32	0.336	0.354	0.226	1.15	1.15	1.25	0.969
H3255	1	0.901	0.756	0.539	0.333	0.358	0.362	0.35	0.295	0.315	0.363	0.34	0.328	0.311	0.525	0.46	0.543	0.193
HARA	0.37	0.229	0.34	0.215	0.244	0.32	0.265	0.216	0.23	0.221	0.308	0.289	0.261	0.264	1.15	1.17	1.16	1.16
HCC-15	1.19	1.2	1.26	0.774	0.457	0.677	0.612	0.567	0.561	0.476	0.694	0.666	0.772	0.51	0.707	0.728	0.599	0.475
HCC-44	1.02	0.876	1.02	0.995	0.774						0.976	0.995	0.953	0.919	0.935	0.909	1.08	0.928
HCC-78	0.609	0.687	0.466	0.327	0.254	0.406	0.449	0.456	0.345	0.403	0.481	0.428	0.446	0.458	0.816	0.766	0.812	0.66
HCC-366	0.262	0.29	0.272	0.107	0.121	0.647	0.745	0.691	0.576	0.26	0.395	0.476	0.368	0.33	1.06	0.964	1.2	1.09
HCC-827	0.247	0.244	0.159	0.203	0.159	0.282	0.294	0.414	0.233	0.308	0.504	0.513	0.509	0.383	1.05	1.01	1.08	0.99
HOP-62	0.535	0.711	0.545	0.222	0.15	0.765	0.743	0.547	0.574	0.323	0.548	0.428	0.423	0.379	1.09	1.11	1.09	0.967
LC-2-ad	0.884	0.853	0.759	0.497	0.257	0.629	0.716	0.52	0.435	0.417	0.495	0.535	0.457	0.467	0.463	0.434	0.464	0.257
LCLC-97TM1	0.246	0.283	0.283	0.281	0.243	0.865	0.939	0.762	0.914	0.675	0.252	0.231	0.198	0.228	0.533	0.528	0.314	0.355

Cell Line	relative viability (Entinostat + AZD7762; first compound 0.02 µM)	relative viability (Entinostat + AZD7762; first compound 0.06325 µM)	relative viability (Entinostat + AZD7762; first compound 0.2 µM)	relative viability (Entinostat + AZD7762; first compound 0.6325 µM)	relative viability (Entinostat + AZD7762; first compound 2 µM)	relative viability ([1]; first compound 0.02 µM)	relative viability ([1]; first compound 0.06325 µM)	relative viability ([1]; first compound 0.2 µM)	relative viability ([1]; first compound 0.6325 µM)	relative viability ([1]; first compound 2 µM)	relative viability (SGI-1776 + Palbociclib; first compound 0.08 µM)	relative viability (SGI-1776 + Palbociclib; first compound 0.8 µM)	relative viability (SGI-1776 + Palbociclib; first compound 2.53 µM)	relative viability (SGI-1776 + Palbociclib; first compound 8 µM)	relative viability (SGI-1776 + Navitoclax; first compound 0.08 µM)	relative viability (SGI-1776 + Navitoclax; first compound 0.8 µM)	relative viability (SGI-1776 + Navitoclax; first compound 2.53 µM)	relative viability (SGI-1776 + Navitoclax; first compound 8 µM)
LK-2	0.481	0.623	0.5	0.345	0.21	0.253	0.284	0.245	0.245	0.283	0.513	0.735	0.647	0.534	0.98	0.828	0.772	0.549
LOU-NH91	0.729	0.807	0.735	0.664	0.653	0.537	0.546	0.587	0.56	0.357	0.647	0.552	0.536	0.537	0.747	0.744	0.698	0.445
LU99A	0.353	0.475	0.378	0.224	0.254	0.538	0.533	0.37	0.347	0.182	0.415	0.441	0.407	0.381	0.903	0.782	0.898	0.81
LXF-289	1.05	1.14	1.07	0.952	0.473	0.228	0.249	0.219	0.17	0.175	0.593	0.583	0.619	0.602	0.966	0.989	0.963	0.983
NCI-H23	0.377	0.294	0.251	0.137	0.121	0.82		0.582	0.724	0.482	0.507	0.574	0.421	0.482	0.988	0.728	0.837	0.729
NCI-H322M	0.591	0.64	0.958	0.731	0.621	0.251	0.251	0.241	0.274	0.234	0.515	0.508	0.476	0.451	1.28	1.25	1.15	1.12
NCI-H441	1.05	0.883	0.715	0.281	0.196	0.685	0.783	0.609	0.486	0.415	0.204	0.219	0.235	0.164	0.775	0.732	0.629	0.374
NCI-H460	0.65	0.651	0.559	0.233	0.0734	0.521	0.361	0.417	0.414	0.185	0.243	0.133	0.121	0.151	1.12	1.13	1.07	1.19
NCI-H647	0.49	0.557	0.55	0.186	0.0556	0.196	0.2	0.174	0.164	0.0709	0.506	0.367	0.319	0.258	1.1	0.993	1.18	0.715
NCI-H727	0.598	0.667	0.624	0.646	0.776	0.388	0.351	0.295	0.442	0.345	0.583	0.679	0.693	0.51	0.426	0.446	0.346	0.247
NCI-H838	0.993	0.973	0.814	0.917	0.712	0.291	0.299	0.271	0.314	0.249	0.228	0.222	0.204	0.155	1.12	1.22	1.14	0.869
NCI-H1355	0.634	0.789	0.618	0.546	0.369	0.755	0.79	0.71	0.659	0.5	0.419	0.433	0.413	0.345	0.952	0.967	0.883	0.798
NCI-H1395	0.39	0.386	0.395	0.373	0.356	0.388	0.359	0.394	0.353	0.369	0.615	0.588	0.611	0.457	1.08	1.41	1.13	0.836
NCI-H1437	1.12	0.947	0.781	0.396	0.369	0.33	0.431	0.272	0.385	0.264	0.311	0.315	0.257	0.261	1.13	1.07	1.11	1.04
NCI-H1651	0.452	0.48	0.377	0.394	0.245	0.482	0.461	0.39	0.4	0.22	0.504	0.497	0.522	0.439	1.19	1.04	0.9	0.825
NCI-H1666	1.07	0.918	0.812	0.835	0.519	0.865	0.761	0.658	0.632	0.517	0.64	0.66	0.614	0.663	0.907	0.772	0.836	0.705
NCI-H1734	0.5	0.476	0.364	0.259	0.244	0.502	0.544	0.436	0.397	0.262	0.387	0.339	0.345	0.283	0.829	0.851	0.884	0.759
SW 1573						0.401	0.565	0.458	0.378	0.247	0.441	0.351	0.363	0.245	1.1	0.862	1.15	0.719

Source: the supplement of paper PMC10307832
